Laboratory results taken from ChEMBL document CHEMBL1201862, “PubChem BioAssay data set” (2004).
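Dose response: 5 concentrations. Exposure: 48 h. Format: 96-well plates. Endpoint: linear interpolation; highest concentration if not reached. At the GI50, growth is halved.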 Calls of active or inactive are those of the source. Cut-off read from the data, not from the text of the source: active = GI50 up to about 1.1 µM and inactive = higher.

Assays:
Experiment in all cases: NCI anticancer screen, dose series, 48 h
786-0 = tested on: 786-0
LOX IMVI = tested on: LOX IMVI
MDA-MB-435 = tested on: MDA-MB-435
A549 = tested on: A549
EKVX = tested on: EKVX
U-251 = tested on: U-251
UACC-62 = tested on: UACC-62
CCRF-CEM = tested on: CCRF-CEM
HCT-116 = tested on: HCT-116
CAKI-1 = tested on: CAKI-1
NCI-H23 = tested on: NCI-H23
M14 = tested on: M14
HCT-15 = tested on: HCT-15
SF-539 = tested on: SF-539
K562 = tested on: K562
MOLT-4 = tested on: MOLT-4
OVCAR-3 = tested on: OVCAR-3
UACC-257 = tested on: UACC-257
SF-295 = tested on: SF-295
SK-MEL-2 = tested on: SK-MEL-2
NCI-H522 = tested on: NCI-H522
SK-MEL-5 = tested on: SK-MEL-5
BT-549 = tested on: BT-549
HT-29 = tested on: HT-29
SK-MEL-28 = tested on: SK-MEL-28
T47D = tested on: T47D
OVCAR-4 = tested on: OVCAR-4
NCI-H460 = tested on: NCI-H460
HOP-62 = tested on: HOP-62
MDA-N = tested on: MDA-N
UO-31 = tested on: UO-31
MCF7 = tested on: MCF7
OVCAR-5 = tested on: OVCAR-5
NCI/ADR-RES = tested on: NCI/ADR-RES
HL-60 = tested on: HL-60
SW-620 = tested on: SW-620
RPMI-8226 = tested on: RPMI-8226
SR = tested on: SR
COLO 205 = tested on: COLO 205
SK-OV-3 = tested on: SK-OV-3
KM12 = tested on: KM12
DU-145 = tested on: DU-145
IGROV-1 = tested on: IGROV-1
A498 = tested on: A498
SNB-19 = tested on: SNB-19
Hs-578T = tested on: Hs-578T
ACHN = tested on: ACHN
SF-268 = tested on: SF-268
PC-3 = tested on: PC-3
OVCAR-8 = tested on: OVCAR-8
HCC 2998 = tested on: HCC 2998
Malme-3M = tested on: Malme-3M
TK-10 = tested on: TK-10
RXF 393 = tested on: RXF 393
SN12C = tested on: SN12C
NCI-H226 = tested on: NCI-H226
SNB-75 = tested on: SNB-75
HOP-92 = tested on: HOP-92

## O=c1c(/C=C/c2c(O)ccc3ccccc23)nnc2sc(-c3cccc(Br)c3)nn12
786-0
  GI50: 26.6 µM (inactive)
LOX IMVI
  GI50: 4.88 µM (inactive)
MDA-MB-435
  GI50: 21.1 µM (inactive)
A549
  GI50: 32.1 µM (inactive)
EKVX
  GI50: 16.7 µM (inactive)
U-251
  GI50: 25.2 µM (inactive)
UACC-62
  GI50: 20.7 µM (inactive)
CCRF-CEM
  GI50: 3.82 µM (inactive)
HCT-116
  GI50: 22.5 µM (inactive)
CAKI-1
  GI50: 15.3 µM (inactive)
NCI-H23
  GI50: 14.7 µM (inactive)
M14
  GI50: 15.8 µM (inactive)
HCT-15
  GI50: 6.78 µM
SF-539
  GI50: 63.8 µM (inactive)
K562
  GI50: 19.9 µM (inactive)
MOLT-4
  GI50: 3.4 µM (inactive)
OVCAR-3
  GI50: 3.89 µM (inactive)
UACC-257
  GI50: 23.7 µM (inactive)
SF-295
  GI50: 32.7 µM (inactive)
SK-MEL-2
  GI50: 23.6 µM (inactive)
NCI-H522
  GI50: 15.5 µM (inactive)
SK-MEL-5
  GI50: 17.8 µM (inactive)
BT-549
  GI50: 11.6 µM (inactive)
HT-29
  GI50: 29.9 µM (inactive)
SK-MEL-28
  GI50: 20.8 µM (inactive)
T47D
  GI50: 15 µM (inactive)
OVCAR-4
  GI50: 4.8 µM (inactive)
NCI-H460
  GI50: 25.4 µM (inactive)
HOP-62
  GI50: 24.8 µM (inactive)
MDA-N
  GI50: 28.3 µM (inactive)
UO-31
  GI50: 13.4 µM (inactive)
MCF7
  GI50: 13.6 µM (inactive)
OVCAR-5
  GI50: 19.5 µM (inactive)
NCI/ADR-RES
  GI50: 22.8 µM (inactive)
HL-60
  GI50: 3.94 µM (inactive)
SW-620
  GI50: 25.6 µM (inactive)
RPMI-8226
  GI50: 10.3 µM (inactive)
SR
  GI50: 4.72 µM (inactive)
COLO 205
  GI50: 39.2 µM (inactive)
SK-OV-3
  GI50: 30.1 µM (inactive)
KM12
  GI50: 20.7 µM (inactive)
DU-145
  GI50: 16.1 µM (inactive)
IGROV-1
  GI50: 0.773 µM (active)
A498
  GI50: 26.7 µM (inactive)
SNB-19
  GI50: 39 µM (inactive)
Hs-578T
  GI50: 35.9 µM (inactive)
ACHN
  GI50: 16.1 µM (inactive)
SF-268
  GI50: 4.51 µM (inactive)
PC-3
  GI50: 22.4 µM (inactive)
OVCAR-8
  GI50: 3.44 µM (inactive)
HCC 2998
  GI50: 20.1 µM (inactive)
Malme-3M
  GI50: 23 µM (inactive)

## O=c1[nH]nc(Cc2ccccc2)[nH]1
786-0
  GI50: > 100 µM (inactive)
LOX IMVI
  GI50: > 100 µM (inactive)
MDA-MB-435
  GI50: > 100 µM (inactive)
A549
  GI50: > 100 µM (inactive)
EKVX
  GI50: > 100 µM (inactive)
U-251
  GI50: > 100 µM (inactive)
UACC-62
  GI50: > 100 µM (inactive)
CCRF-CEM
  GI50: > 100 µM (inactive)
TK-10
  GI50: > 100 µM (inactive)
HCT-116
  GI50: > 100 µM (inactive)
CAKI-1
  GI50: > 100 µM (inactive)
NCI-H23
  GI50: > 100 µM (inactive)
M14
  GI50: > 100 µM (inactive)
HCT-15
  GI50: > 100 µM
SF-539
  GI50: > 100 µM (inactive)
K562
  GI50: > 100 µM (inactive)
MOLT-4
  GI50: > 100 µM (inactive)
OVCAR-3
  GI50: > 100 µM (inactive)
UACC-257
  GI50: > 100 µM (inactive)
SF-295
  GI50: > 100 µM (inactive)
RXF 393
  GI50: > 100 µM (inactive)
SK-MEL-2
  GI50: > 100 µM (inactive)
NCI-H522
  GI50: > 100 µM (inactive)
SK-MEL-5
  GI50: > 100 µM (inactive)
BT-549
  GI50: > 100 µM (inactive)
HT-29
  GI50: > 100 µM (inactive)
SK-MEL-28
  GI50: > 100 µM (inactive)
T47D
  GI50: > 100 µM (inactive)
OVCAR-4
  GI50: > 100 µM (inactive)
NCI-H460
  GI50: > 100 µM (inactive)
HOP-62
  GI50: > 100 µM (inactive)
MDA-N
  GI50: > 100 µM (inactive)
UO-31
  GI50: > 100 µM (inactive)
MCF7
  GI50: > 100 µM (inactive)
OVCAR-5
  GI50: > 100 µM (inactive)
NCI/ADR-RES
  GI50: > 100 µM (inactive)
SN12C
  GI50: > 100 µM (inactive)
NCI-H226
  GI50: > 100 µM (inactive)
HL-60
  GI50: > 100 µM (inactive)
SW-620
  GI50: > 100 µM (inactive)
RPMI-8226
  GI50: > 100 µM (inactive)
SR
  GI50: 44.6 µM (inactive)
COLO 205
  GI50: > 100 µM (inactive)
SNB-75
  GI50: > 100 µM (inactive)
KM12
  GI50: > 100 µM (inactive)
HOP-92
  GI50: > 100 µM (inactive)
DU-145
  GI50: > 100 µM (inactive)
IGROV-1
  GI50: > 100 µM (inactive)
A498
  GI50: > 100 µM (inactive)
SNB-19
  GI50: > 100 µM (inactive)
Hs-578T
  GI50: > 100 µM (inactive)
ACHN
  GI50: > 100 µM (inactive)
SF-268
  GI50: > 100 µM (inactive)
PC-3
  GI50: > 100 µM (inactive)
OVCAR-8
  GI50: > 100 µM (inactive)
HCC 2998
  GI50: > 100 µM (inactive)
Malme-3M
  GI50: > 100 µM (inactive)

## CC1(C(=O)O)CCC2(C)CCC3(C)C(=CC(=O)C4C5(C)CCC(O)C(C)(C)C5CCC43C)C2C1 (stereo unspecified)
786-0
  GI50: 42.1 µM (inactive)
LOX IMVI
  GI50: 22.6 µM (inactive)
MDA-MB-435
  GI50: 35.6 µM (inactive)
A549
  GI50: 40.3 µM (inactive)
EKVX
  GI50: 34.9 µM (inactive)
U-251
  GI50: 43.1 µM (inactive)
UACC-62
  GI50: 21 µM (inactive)
CCRF-CEM
  GI50: 30.9 µM (inactive)
TK-10
  GI50: 35.7 µM (inactive)
HCT-116
  GI50: 23.4 µM (inactive)
CAKI-1
  GI50: 24.4 µM (inactive)
NCI-H23
  GI50: 21.2 µM (inactive)
M14
  GI50: 36.3 µM (inactive)
HCT-15
  GI50: 34.8 µM
SF-539
  GI50: 17.6 µM (inactive)
MOLT-4
  GI50: 36.2 µM (inactive)
OVCAR-3
  GI50: 19.3 µM (inactive)
UACC-257
  GI50: 33.9 µM (inactive)
SF-295
  GI50: 26.5 µM (inactive)
RXF 393
  GI50: 36.1 µM (inactive)
SK-MEL-2
  GI50: 21.8 µM (inactive)
NCI-H522
  GI50: 22.7 µM (inactive)
SK-MEL-5
  GI50: 24.4 µM (inactive)
BT-549
  GI50: 11.7 µM (inactive)
HT-29
  GI50: 20.2 µM (inactive)
SK-MEL-28
  GI50: 22.1 µM (inactive)
T47D
  GI50: 30.8 µM (inactive)
OVCAR-4
  GI50: 42.8 µM (inactive)
MDA-N
  GI50: 38.7 µM (inactive)
UO-31
  GI50: 23.6 µM (inactive)
MCF7
  GI50: 50.2 µM (inactive)
OVCAR-5
  GI50: 29.6 µM (inactive)
NCI/ADR-RES
  GI50: 46 µM (inactive)
SN12C
  GI50: 41.8 µM (inactive)
NCI-H226
  GI50: 25.8 µM (inactive)
HL-60
  GI50: 24.6 µM (inactive)
SW-620
  GI50: 37.5 µM (inactive)
RPMI-8226
  GI50: > 10 µM (inactive)
SR
  GI50: 24.3 µM (inactive)
COLO 205
  GI50: 38.8 µM (inactive)
SNB-75
  GI50: 33.8 µM (inactive)
SK-OV-3
  GI50: 43.4 µM (inactive)
KM12
  GI50: 18.3 µM (inactive)
DU-145
  GI50: 29.6 µM (inactive)
SNB-19
  GI50: 20.6 µM (inactive)
Hs-578T
  GI50: 28.6 µM (inactive)
ACHN
  GI50: 22.6 µM (inactive)
SF-268
  GI50: 27.4 µM (inactive)
PC-3
  GI50: 36.1 µM (inactive)
OVCAR-8
  GI50: 43.8 µM (inactive)
HCC 2998
  GI50: 23.1 µM (inactive)
Malme-3M
  GI50: > 100 µM (inactive)
